By LD50 is commonly meant the dose at which mortality reaches 50%. Lower therefore signals a more toxic substance.

Data set [1] is described as follows: acute toxicity (LD 50). Particulars: in vivo, ip. The text has this:
To illustrate the invention, there are shown in table IV below, the results obtained in these two tests and the acute toxicity (LD 50) of some compounds of formula (I).

The subject of data set [2] is mice. Description: analgesic activity, phenylbenzoquinone test (E. SIEGMUND). In kind it is in vivo. Particulars: Mus musculus, ip, read-out: ED 50 analgesic property. An excerpt:
Soc. Exp. Biol. and Med. 95, 729, (1957).

Data set [3] has as its system mice. In words: antidepressive activity, antagonism to ptosis after intravenous injection of reserpine. The note with it: Mus musculus, ip, 1 h, i.p., ptosis observed an hour after i.v. reserpine 2 mg/kg, read-out: ED 50 antidepressive property. In kind it is in vivo. An excerpt:
GOURET and J. THOMAS in J. Pharmacol. (Paris) (1973), 4, 401.

Regarding `CN(C)CCC1Cc2ccccc2C(c2cccnc2)=N1` (stereo not drawn) [compound 108], the LD50 in data set [1] was found to be 90 mg/kg. For the same molecule, the figures for the ED50 in data set [2] and in data set [3] were 7.6 mg/kg and 12 mg/kg, respectively.

(Values after US4386090A, “Nitrogen containing 2,3-dihydro naphthalenes, compositions and use” (Delalande S.A., priority 1980, dated 1983).)
